The values that follow come from patent US7820865B2, “Photolatent systems” (Ciba Corporation, priority 2005, dated 2010).

Each structure is given as a SMILES string.

`CCOCC(=O)c1cc(C(C)C)c(O)c(C(C)C)c1`: the melting point (usually the temperature, or range, at which the solid turns liquid) was 97 to 98 °C.

With `COc1cc(C=O)ccc1OCC(=O)c1cc(C(C)(C)C)c(O)c(C(C)(C)C)c1` [Compound 101, 4-[2-(3,5-di-tert-butyl-4-hydroxyphenyl)-2-oxo-ethoxy]-3-methoxy-benzaldehyde], the melting point was in the range of 99 to 100 °C.

As for `COc1cc(C=O)ccc1OCC(=O)c1cc(C2CCCCC2)c(O)c(C2CCCCC2)c1` [Compound 103, 4-[2-(3,5-di-cyclohexyl-4-hydroxyphenyl)-2-oxo-ethoxy]-3-methoxy-benzaldehyde], the melting point lay within 163 to 164 °C.

With `CC(C)(C)c1cc(C(=O)COc2ccc(Cl)cc2Oc2ccc(Cl)cc2Cl)cc(C(C)(C)C)c1O` [Compound 104, 2-[4-chloro-2-(2,4-dichloro-phenoxy)-phenoxy]-1-(3,5-di-tert-butyl-4-hydroxyphenyl)-ethanone], the melting point fell in the range of 111 to 114 °C.

For `Cc1ccc(OCC(=O)c2cc(C(C)C)c(O)c(C(C)C)c2)cc1` [Compound 105, 1-(4-hydroxy-3,5-di-isopropylphenyl)-2-p-tolyloxy-ethanone], the melting point was in the range of 124 to 125 °C.

Consider `CCC(C)(C)c1cc(C(=O)COc2ccc(C=O)cc2OC)cc(C(C)(C)CC)c1O` [Compound 107, 4-{2-[3,5-bis(1,1-dimethyl-propyl)-4-hydroxy-phenyl]-2-oxo-ethoxy}-3-methoxy-benzaldehyde], for which the melting point lay in the range of 106 to 107 °C.

The molecule `CC(C)=CCC/C(C)=C/COCC(=O)c1cc(C(C)C)c(O)c(C(C)C)c1` [Compound 108, 2-[(E)-3,7-dimethyl-octa-2,6-dienyloxy]-1-(4-hydroxy-3,5-di-isopropyl-phenyl)-ethanone] returned a melting point of 70 to 71 °C.

Molecule `CC(C)=CCCC(C)CCOCC(=O)c1cc(C(C)C)c(O)c(C(C)C)c1` (centres unmarked) [Compound 109, 2-(3,7-dimethyl-oct-6-enyloxy]-1-(4-hydroxy-3,5-di-isopropyl-phenyl)-ethanone] yielded a melting point of 37 to 39 °C.

`CC(C)c1cc(C(=O)CO[C@@H]2C[C@H](C)CC[C@H]2C(C)C)cc(C(C)C)c1O` [Compound 110, 1-(4-hydroxy-3,5-di-isopropylphenyl)-2-[(1R,2S,5R)-2-isopropyl-5-methyl-cyclohexyloxy]-ethanone] had a melting point of 83 to 84 °C.

In turn, `CCOCC(=O)c1cc(C(C)(C)C)c(O)c(C(C)(C)C)c1` [Compound 113, 2-ethoxy-1-(4-hydroxy-3,5-di-tert-butylphenyl)-ethanone] registered a melting point of 73 to 75 °C.

Turning to `CCOC(C)C(=O)c1cc(C(C)(C)C)c(O)c(C(C)(C)C)c1` (centres unmarked) [Compound 115, 1-(3,5-di-tert-butyl-4-hydroxyphenyl)-2-ethoxy-propan-1-one], the melting point worked out at 64 °C.

For `CC(C)=CCC/C(C)=C/COCC(=O)c1cc(C(C)(C)C)c(O)c(C(C)(C)C)c1` [Compound 116, 1-(3,5-di-tert-butyl-4-hydroxyphenyl)-2-[(E)-3,7-dimethyl-octa-2,6-dienyloxy]-ethanone], the melting point was 50 °C.

For `CC(C)c1cc(C(=O)CI)cc(C(C)C)c1O` [Compound 201, 1-(4-hydroxy-3,5-di-isopropylphenyl)-2-iodo-ethanone], the melting point lay in the range of 127 to 128 °C.

As to `CC(C)(C)c1cc(C(=O)CI)cc(C(C)(C)C)c1O` [Compound 202, 1-(4-hydroxy-3,5-di-tert-butylphenyl)-2-iodo-ethanone], the melting point was in the range of 88 to 89 °C.

Turning to `O=C(CI)c1cc(C2CCCCC2)c(O)c(C2CCCCC2)c1` [Compound 203, 1-(4-hydroxy-3,5-di-cyclohexyphenyl)-2-iodo-ethanone], the melting point was in the range of 183 to 185 °C.

Molecule `CCC(C)(C)c1cc(C(=O)CI)cc(C(C)(C)CC)c1O` [Compound 204, 1-(3,5-bis(1,1-dimethylpropyl)-4-hydroxyphenyl)-2-iodo-ethanone] had a melting point of 76 to 77 °C.

In the case of `CC(I)C(=O)c1cc(C(C)(C)C)c(O)c(C(C)(C)C)c1` (centres unmarked) [Compound 205, 1-(4-hydroxy-3,5-tert-butylphenyl)-2-iodo-propane-1-one], the melting point is 141 °C.
